{"source": "patent US20040191289A1", "about": "“Compositions for controlling plant pathogenic bacterium and method of controlling plant pathogenic bacterium” (priority 2001, published 2004)", "key": {"[1]": {"test_system": "Pythium aphanidermatum", "assay": "Antimicrobial test, mycelial growth on PSA medium (Test Example 1)", "format": "cell-based", "conditions": "20° C., 2 day incubation", "protocol": "(§1) Each sample fungal flora pre-cultured in PSA medium was cut from the medium plate with a cork borer, and placed on a center of PSA medium containing each test compound at a predetermined concentration, dispensed in a Petri dish with an inner diameter of 8 cm. Immediately thereafter, the dish was allowed to stand in a thermostatic room set at 20° C. The diameters of the flora zones were measured after 2 day incubation. A mycelial growth rate is calculated according to the following equation. […] A theoretically expected value can be calculated according to the following formula derived from the so-called Colby's formula. In cases where an observed value is lower than the theoretically expected one obtained from the formula derived from the Colby's formula, the phytopathogenic microorganism-disinfecting composition of the present invention is synergistically effective in combating and/or eliminating phytopathogenic microorganisms."}, "[2]": {"test_system": "Pythium spinosum", "assay": "Antimicrobial test, mycelial growth on PSA medium (Test Example 1)", "format": "cell-based", "conditions": "20° C., 2 day incubation", "protocol": "as §1"}, "[3]": {"test_system": "Pythium Damping-off Disease of Rice Seedlings", "assay": "Test for prophylactic efficacy against Pythium damping-off disease of rice seedlings (1) (Test Example 2)", "format": "in vivo", "conditions": "soil irrigation, 29 days after sowing", "protocol": "(§2) Polyvinyl chloride cups (each 10 cm square) were filled with pathogen-inoculated soil as bed soil, and seeded with rice seeds. Next, the polyvinyl chloride cup was irrigated using a pipette with a test solution (27.8 ml) prepared by adjusting each active ingredient compound to a predetermined concentration, and then covered with soil. After kept for 3 days in a thermostatic room set at 32° C., the plants were grown in a greenhouse. Ten days after sowing, the plants were exposed to a cold temperature during night. Twenty nine days after sowing, the disease incidence area was examined. In these cases, each theoretically expected value obtained from the aforementioned formula derived from the Colby's formula is shown in parentheses in Table 3."}, "[4]": {"test_system": "Pythium Damping-off Disease of Rice Seedlings", "assay": "Test for prophylactic efficacy against Pythium damping-off disease of rice seedlings (2) (Test Example 3)", "format": "in vivo", "conditions": "soil irrigation, 35 days after sowing", "protocol": "as §2, with “AS resin cases” for “Polyvinyl chloride cups”, “15×11 cm)” for “10 cm square)”, “AS resin case” for “polyvinyl chloride cup”, “(50” for “(27.8”, “night for 3 days. Thirty five” for “night. Twenty nine”, “4.” for “3.”"}, "[5]": {"test_system": "Aphanomyces cochlioides (MAFF No. 305548)", "assay": "Antimicrobial test, mycelial growth on PSA medium (Test Example 4)", "format": "cell-based", "conditions": "20° C., 3 day incubation", "protocol": "(§3) Each sample fungal flora pre-cultured in PSA medium was cut from the medium plate with a cork borer, and placed on a center of PSA medium containing each test compound at a predetermined concentration, dispensed in a Petri dish with an inner diameter of 8 cm. Immediately thereafter, the dish was allowed to stand in a thermostatic room set at 20° C. […] In cases where an observed value is lower than the theoretically expected one derived from the Colby's formula, the phytopathogenic microorganism-disinfecting composition of the present invention is synergistically effective in combating and/or eliminating phytopathogenic microorganisms."}, "[6]": {"test_system": "Pythium debaryanum (MAFF No. 305462)", "assay": "Antimicrobial test, mycelial growth on PSA medium (Test Example 4)", "format": "cell-based", "conditions": "20° C., 1 day incubation", "protocol": "as §3"}}}
{"smiles": "Cc1ccc(-c2c(Cl)nc(C#N)n2S(=O)(=O)N(C)C)cc1", "note": "[Compound No. 1, 4-chloro-2-cyano-1-dimethylsulfamoyl-5-(4-methyl-phenyl)imidazole]", "values": [{"measurement": "Mycelial Growth Rate (%)", "setting": "[1]; Compound No. 1 25 ppm alone", "result": 21.1, "unit": "%"}, {"measurement": "Mycelial Growth Rate (%)", "setting": "[1]; Compound No. 1 50 ppm alone", "result": 6.3, "unit": "%"}, {"measurement": "Mycelial Growth Rate (%)", "setting": "[1]; Compound No. 1 100 ppm alone", "result": 9.4, "unit": "%"}, {"measurement": "Mycelial Growth Rate (%)", "setting": "[2]; Compound No. 1 25 ppm alone", "result": 14.4, "unit": "%"}, {"measurement": "Mycelial Growth Rate (%)", "setting": "[2]; Compound No. 1 50 ppm alone", "result": 9.3, "unit": "%"}, {"measurement": "Mycelial Growth Rate (%)", "setting": "[2]; Compound No. 1 100 ppm alone", "result": 2.1, "unit": "%"}, {"measurement": "Damping-off Incidence Area Rate (%)", "setting": "[3]; Compound No. 1 278 g/ha alone", "result": 67, "unit": "%"}, {"measurement": "Damping-off Incidence Area Rate (%)", "setting": "[4]; Compound No. 1 139 g/ha alone", "result": 50, "unit": "%"}, {"measurement": "Mycelial Growth Rate (%)", "setting": "[5]; Compound No. 1 25 ppm alone", "result": 52, "unit": "%"}, {"measurement": "Mycelial Growth Rate (%)", "setting": "[5]; Compound No. 1 50 ppm alone", "result": 29, "unit": "%"}, {"measurement": "Mycelial Growth Rate (%)", "setting": "[5]; Compound No. 1 100 ppm alone", "result": 11, "unit": "%"}, {"measurement": "Mycelial Growth Rate (%)", "setting": "[6]; Compound No. 1 25 ppm alone", "result": 59, "unit": "%"}, {"measurement": "Mycelial Growth Rate (%)", "setting": "[6]; Compound No. 1 50 ppm alone", "result": 49, "unit": "%"}, {"measurement": "Mycelial Growth Rate (%)", "setting": "[6]; Compound No. 1 100 ppm alone", "result": 44, "unit": "%"}]}
{"smiles": "Cc1cc(O)no1", "note": "[Hymexazol, 5-methylisoxazol-3-ol]", "values": [{"measurement": "Mycelial Growth Rate (%)", "setting": "[1]; Hymexazol 25 ppm alone", "result": 22.7, "unit": "%"}, {"measurement": "Mycelial Growth Rate (%)", "setting": "[1]; Hymexazol 50 ppm alone", "result": 16.4, "unit": "%"}, {"measurement": "Mycelial Growth Rate (%)", "setting": "[1]; Hymexazol 100 ppm alone", "result": 6.3, "unit": "%"}, {"measurement": "Mycelial Growth Rate (%)", "setting": "[2]; Hymexazol 25 ppm alone", "result": 27.8, "unit": "%"}, {"measurement": "Mycelial Growth Rate (%)", "setting": "[2]; Hymexazol 50 ppm alone", "result": 21.6, "unit": "%"}, {"measurement": "Mycelial Growth Rate (%)", "setting": "[2]; Hymexazol 100 ppm alone", "result": 23.7, "unit": "%"}, {"measurement": "Damping-off Incidence Area Rate (%)", "setting": "[3]; Hymexazol 1,040 g/ha alone", "result": 50, "unit": "%"}, {"measurement": "Damping-off Incidence Area Rate (%)", "setting": "[4]; Hymexazol 1,040 g/ha alone (Compound No. 1 0 ppm)", "result": 90, "unit": "%"}, {"measurement": "Mycelial Growth Rate (%)", "setting": "[5]; Hymexazol 25 ppm alone", "result": 53, "unit": "%"}, {"measurement": "Mycelial Growth Rate (%)", "setting": "[5]; Hymexazol 50 ppm alone", "result": 43, "unit": "%"}, {"measurement": "Mycelial Growth Rate (%)", "setting": "[5]; Hymexazol 100 ppm alone", "result": 43, "unit": "%"}, {"measurement": "Mycelial Growth Rate (%)", "setting": "[6]; Hymexazol 25 ppm alone", "result": 89, "unit": "%"}, {"measurement": "Mycelial Growth Rate (%)", "setting": "[6]; Hymexazol 50 ppm alone", "result": 84, "unit": "%"}, {"measurement": "Mycelial Growth Rate (%)", "setting": "[6]; Hymexazol 100 ppm alone", "result": 67, "unit": "%"}]}
